Reference: patent publication US20240139113A1, “LIPID NANOPARTICLE WITH TARGET INTEGRIN FUNCTION AND USES THEREOF” (priority 2022, published 2024)

How the values were obtained:
[1] = test system: human umbilical vein endothelial cells (HUVEC); assay: Cell viability of normal cells (HUVEC), 3-day treatment; type: cell-based; details: 3 days, FIG. 2A
From the text: (§1) In this example, the effect of the lipid nanoparticle on the growth of normal cells is investigated.
(§2) Dox represents doxorubicin; Tetrac represents tetraiodothyroacetic acid.

[2] = test system: monkey kidney epithelial cells (Vero); assay: Cell viability of normal cells (Vero), 3-day treatment; type: cell-based; details: 3 days, FIG. 2A
From the text: as §1, §2

## O=C(O)Cc1cc(I)c(Oc2cc(I)c(O)c(I)c2)c(I)c1 [Tetrac, tetraiodothyroacetic acid]
[1]
  cell viability / growth of normal cells: do not affect the growth of normal cells
[2]
  cell viability / growth of normal cells: do not affect the growth of normal cells
